Assay results: patent US4990497A, “Antifungal antibiotics” (priority 1989, dated 1991)
Values after ≈ are worked out from the molar mass of the structure shown. “Also recorded” adds a separate entry of the source. Where two headings read alike, the source gives them in different places.

What was measured:
[1] = system: Petriellidium boydii; assay: Antifungal MIC, serial agar dilution (Sabouraud dextrose agar), Petriellidium boydii; settings: Scedosporium boydii, IFO8073, 72 h
Procedure: (§1) The minimum inhibitory concentrations (MICs) against various fungi were determined by serial agar and broth dilution methods using Sabouraud dextrose agar and broth. The inoculum size of the test organism was adjusted to 10^5 CFUs/ml (BU-3608) or 10^5 -10^9 CFUs/ml (BU-3608 B and C) in the agar dilution method, and 10^4 -10^5 CFUs/ml (BU-3608) or 10^4 -10^6 CFUs/ml (BU-3608 B and C) in the broth dilution method.
(§2) ^(1) Determined after incubation for 72 hours at 28° C.

[2] = system: Aspergillus fumigatus; assay: Antifungal MIC, broth dilution (Sabouraud dextrose broth), Aspergillus fumigatus
Procedure: as §1, §2
(§3) ^(2) Inoculum size: 10^5 CFU/ml for agar dilution and 10^4
-10^5 CFU/ml for broth dilution.
(§4) ^(3) Values in parenthesis indicate partial inhibition.
(§5) *Determined after incubation for 48-72 hours at 28° C.
(§6) **Inoculum size : 10^4 -10^6 CFU/ml for broth dilution and
10^5 -10^9 CFU/ml for agar dilution.
(§7) Values in parenthesis indicate partial inhibition.

[3] = system: Aspergillus fumigatus; assay: Antifungal MIC, serial agar dilution (Sabouraud dextrose agar), Aspergillus fumigatus; format: cell-based
[4] = system: Cryptococcus neoformans; assay: Antifungal MIC, broth dilution (Sabouraud dextrose broth), Cryptococcus neoformans
Procedure: as §1, §2, §3
-10^5 CFU/ml for broth dilution.
as §4, §5, §6
10^5 -10^9 CFU/ml for agar dilution.
as §7

[5] = system: Candida albicans; assay: Antifungal MIC, broth dilution (Sabouraud dextrose broth), Candida albicans
Procedure: as §1, §2, §3
-10^5 CFU/ml for broth dilution.
as §4, §5, §6
10^5 -10^9 CFU/ml for agar dilution.
as §7

[6] = system: Candida albicans; assay: Antifungal MIC, serial agar dilution (Sabouraud dextrose agar), Candida albicans; format: cell-based
[7] = system: Piricularia oryzae; assay: microbe, parasite or virus in culture; format: cell-based
[8] = Acute toxicity in mice; format: in vivo
Procedure: The acute toxicity of BU-3608 was determined in mice after single intravenous and intramuscular administrations.

[9] = system: Sporothrix schenckii; assay: Antifungal MIC, serial agar dilution (Sabouraud dextrose agar), Sporothrix schenckii; format: cell-based
[10] = system: Trichophyton mentagrophytes; assay: Antifungal MIC, broth dilution (Sabouraud dextrose broth), Trichophyton mentagrophytes
Procedure: as §1, §2, §3
-10^5 CFU/ml for broth dilution.
as §4, §5, §6
10^5 -10^9 CFU/ml for agar dilution.
as §7

[11] = system: Fusarium moniliforme; assay: Antifungal MIC, serial agar dilution (Sabouraud dextrose agar), Fusarium moniliforme; format: cell-based; settings: Fusarium verticillioides
[12] = system: Trichophyton mentagrophytes; assay: Antifungal MIC, serial agar dilution (Sabouraud dextrose agar), Trichophyton mentagrophytes; format: cell-based
[13] = system: Candida albicans A9540; assay: In vivo antifungal activity, Candida albicans intravenous infection in mice; parameters: species or system mice (male ICR); settings: for ED50: Candida albicans, read-out: PD50; for Number of survivors/tested: iv just after challenge
Procedure: The methyl and ethyl esters of BU-3608 were also evaluated against C. albicans A9540 infections in mice using the protocol described above. […] It is postulated that these esters are hydrolyzed in vivo to provide the active parent compound.

[14] = Solubility; format: physicochemical; settings: free form
[15] = system: influenza virus A; assay: Cytopathic effect (CPE) reduction assay, influenza virus A in MDCK cells; format: cell-based; settings: unidentified influenza virus, 72 h, read-out: ID50 (CPE reduction)
[16] = system: Cryptococcus neoformans IAM 4514; assay: In vivo antifungal activity, Cryptococcus neoformans intravenous infection in mice; settings: IAM4514, in Mus musculus, im, 480 h, read-out: PD50
Procedure: In vivo activities of BU-3608, BU-3608 B, and BU-3608 C were tested against Candida albicans, Aspergillus fumigatus, and Cryptococcus neoformans infections in mice. Test organisms were cultured for 18 hours at 28° C. in YGP medium (yeast extract, glucose, peptone, K2 HPO4, MgSO4) and then suspended in saline. Male ICR mice weighing 20 to 24 g were infected intravenously with about 20 times (BU-3608) or 10 times (BU-3608 B and C) the median lethal dose of the test fungi. The antibiotics at various dose levels were administered to groups of 5 mice each either intravenously just after the fungal infection or intramuscularly twice a day on days 0 and 1. The dose that protects 50% of the animals from infection (PD50, mg/kg) was calculated from survival rates recorded on the 20th day after the fungal challenge.
**Compounds were administered im b.i.d. on days 0 and 1.

[17] = system: Aspergillus flavus; assay: Antifungal MIC, serial agar dilution (Sabouraud dextrose agar), Aspergillus flavus; settings: 72 h
Procedure: as §1, §2

[18] = system: Mucor spinosus; assay: Antifungal MIC, serial agar dilution (Sabouraud dextrose agar), Mucor spinosus; settings: IFO5317, 72 h
Procedure: as §1, §2

[19] = in vitro; settings: dog, mdck
[20] = system: Blastomyces dermatitidis; assay: Antifungal MIC, serial agar dilution (Sabouraud dextrose agar), Blastomyces dermatitidis; settings: 72 h
Procedure: as §1, §2

[21] = system: Cryptococcus neoformans; assay: Antifungal MIC, serial agar dilution (Sabouraud dextrose agar), Cryptococcus neoformans; format: cell-based
[22] = in vitro; settings: monkey, vero cells
[23] = dose 3.1 mg/kg/inj., day 20, challenge 20x (BU-3608) or 10x (B, C) median lethal dose
[24] = dose 6.3 mg/kg/inj., day 20, challenge 20x (BU-3608) or 10x (B, C) median lethal dose
[25] = dose 12.5 mg/kg/inj., day 20, challenge 20x (BU-3608) or 10x (B, C) median lethal dose
[26] = dose 25 mg/kg/inj., day 20, challenge 20x (BU-3608) or 10x (B, C) median lethal dose
[27] = dose 50 mg/kg/inj., day 20, challenge 20x (BU-3608) or 10x (B, C) median lethal dose
[28] = IAM2034, read-out: MIC, partial inhibition (value in parenthesis)
[29] = Aspergillus fumigatus IAM2034, 48-72 h at 28° C., 10^5-10^9 CFU/ml
[30] = Aspergillus fumigatus IAM2530, 48-72 h at 28° C., 10^5-10^9 CFU/ml
[31] = read-out: MIC, partial inhibition (value in parenthesis)
[32] = Candida albicans A9540, 48-72 h at 28° C., 10^5-10^9 CFU/ml
[33] = Candida albicans IAM4888, 48-72 h at 28° C., 10^5-10^9 CFU/ml
[34] = Sporothrix schenckii IFO8158, 48-72 h at 28° C., 10^5-10^9 CFU/ml
[35] = Fusarium moniliforme A2284, 48-72 h at 28° C., 10^5-10^9 CFU/ml
[36] = Trichophyton mentagrophytes #4329, 48-72 h at 28° C., 10^5-10^9 CFU/ml
[37] = Trichophyton mentagrophytes D155, 48-72 h at 28° C., 10^5-10^9 CFU/ml
[38] = Cryptococcus neoformans D49, 48-72 h at 28° C., 10^5-10^9 CFU/ml
[39] = Cryptococcus neoformans IAM4514, 48-72 h at 28° C., 10^5-10^9 CFU/ml

`CN[C@@H]1[C@H](O[C@@H]2OC[C@@H](O)[C@H](O)[C@H]2O)[C@@H](O)[C@H](OC2c3cc(C)c(C(=O)N[C@H](C)C(=O)O)c(O)c3-c3c(cc4c(c3O)C(=O)c3cc(OC)cc(O)c3C4=O)C2O)O[C@@H]1C` (stereo partly shown) [BU-3608] showed an MIC [1] of 100 µg/mL (≈ 119 µM), an MIC ([2]; IAM2034, 72 h) of 12.5 µg/mL (≈ 14.9 µM) and an MIC ([3]; Aspergillus fumigatus IAM2034, 72 h at 28° C., 10^5 CFU/ml) of 3.1 µg/mL (≈ 3.69 µM). It also gave an MIC ([3]; Aspergillus fumigatus IAM2530, 72 h at 28° C., 10^5 CFU/ml) of 3.1 µg/mL (≈ 3.69 µM), an MIC ([4]; IAM4514, 72 h) of 0.4 µg/mL (≈ 0.476 µM) and an MIC ([5]; 72 h) of 6.3 µg/mL (≈ 7.49 µM). It also gave an MIC ([6]; Candida albicans A9540, 72 h at 28° C., 10^5 CFU/ml) of 25 µg/mL (≈ 29.7 µM), an MIC ([6]; Candida albicans IAM4888, 72 h at 28° C., 10^5 CFU/ml) of 25 µg/mL (≈ 29.7 µM) and an MIC ([7]; 72 h) of 3.1 µg/mL (≈ 3.69 µM). The sign of toxicity ([8]; mice, single im dose of 400 mg/kg) was “no sign of toxicity”, the LD50 ([8]; mouse, in vivo, iv) was 140 mg/kg and the MIC ([9]; Sporothrix schenckii IFO8158, 72 h at 28° C., 10^5 CFU/ml) was 0.8 µg/mL (≈ 0.951 µM). The MIC ([10]; 72 h) was 25 µg/mL (≈ 29.7 µM), the MIC ([10]; 72 h, read-out: MIC, partial inhibition (value in parenthesis)) was 6.3 µg/mL (≈ 7.49 µM) and the MIC ([11]; Fusarium moniliforme A2284, 72 h at 28° C., 10^5 CFU/ml) was 3.1 µg/mL (≈ 3.69 µM). For the same compound, the MIC ([12]; 72 h, Trichophyton mentagrophytes #4329, 72 h at 28° C., 10^5 CFU/ml) was 25 µg/mL (≈ 29.7 µM), the MIC ([12]; 72 h, Trichophyton mentagrophytes D155, 72 h at 28° C., 10^5 CFU/ml) was over 100 µg/mL and the ED50 ([13]; A9540, 480 h, iv just after fungal challenge, day 20, challenge 20x (BU-3608) or 10x (B, C) median lethal dose) was 7.2 mg/kg. For the same compound, the Number of survivors/tested ([13]; dose 1.6 mg/kg/inj., day 20, challenge 20x median lethal dose) was 1/5, the Number of survivors/tested [13, 23] was 2/5 and the Number of survivors/tested [13, 24] was 2/5. The Number of survivors/tested [13, 25] was 5/5, the Number of survivors/tested [13, 26] was 5/5 and the Number of survivors/tested [13, 27] was 5/5. For the same compound, the Solubility [14] was “Soluble in dimethyl sulfoxide, dimethyl formamide, acidic and alkaline water; also recorded: Slightly soluble in water, methanol, and ethanol; also recorded: Insoluble in ethyl acetate, chloroform, benzene, n-hexane, and petroleum ether”, the IC50 [15] was 4.4 µg/mL (≈ 5.23 µM) and the ED50 [16] was 3.5 mg/kg. The MIC [17] was 1.6 µg/mL (≈ 1.9 µM), the MIC [18] was 50 µg/mL (≈ 59.5 µM) and the CC50 at 72 h [19] was over 100 µg/mL. For the same compound, the MIC [20] was 6.3 µg/mL (≈ 7.49 µM), the MIC ([21]; Cryptococcus neoformans D49, 72 h at 28° C., 10^5 CFU/ml) was 0.8 µg/mL (≈ 0.951 µM) and the MIC ([21]; Cryptococcus neoformans IAM4514, 72 h at 28° C., 10^5 CFU/ml) was 0.8 µg/mL (≈ 0.951 µM). For the same compound, the CC50 at 72 h [22] was over 100 µg/mL.

Work on `CN[C@@H]1[C@H](O)[C@@H](O)[C@H](OC2c3cc(C)c(C(=O)N[C@H](C)C(=O)O)c(O)c3-c3c(cc4c(c3O)C(=O)c3cc(OC)cc(O)c3C4=O)C2O)O[C@@H]1C` (stereo partly shown) [BU-3608 B] yielded an MIC ([2]; IAM2034) of 50 µg/mL (≈ 70.6 µM), an MIC [2, 28] of 12.5 µg/mL (≈ 17.6 µM) and an MIC [3, 29] of 6.3 µg/mL (≈ 8.89 µM). It also gave an MIC [3, 30] of 6.3 µg/mL (≈ 8.89 µM), an MIC ([4]; IAM4514) of 1.6 µg/mL (≈ 2.26 µM) and an MIC [5] of 3.1 µg/mL (≈ 4.37 µM). For the same compound, the MIC [5, 31] was 3.1 µg/mL (≈ 4.37 µM), the MIC [6, 32] was 3.1 µg/mL (≈ 4.37 µM) and the MIC [6, 33] was 1.6 µg/mL (≈ 2.26 µM). For the same compound, the MIC ([7]; 48-72 h at 28° C., read-out: MIC) was 6.3 µg/mL (≈ 8.89 µM), the MIC [9, 34] was 3.1 µg/mL (≈ 4.37 µM) and the MIC [10] was 6.3 µg/mL (≈ 8.89 µM). It also gave an MIC [10, 31] of 3.1 µg/mL (≈ 4.37 µM), an MIC [11, 35] of over 100 µg/mL and an MIC [12, 36] of 6.3 µg/mL (≈ 8.89 µM). The MIC [12, 37] was 6.3 µg/mL (≈ 8.89 µM), the ED50 ([13]; A9540, im, 480 h) was 22 mg/kg and the ED50 ([13]; A9540, iv, 480 h) was 11 mg/kg. The Number of survivors/tested [13, 23] was 0/5, the Number of survivors/tested [13, 24] was 0/5 and the Number of survivors/tested [13, 25] was 3/5. For the same compound, the Number of survivors/tested [13, 26] was 3/5, the Number of survivors/tested [13, 27] was 4/5 and the IC50 [15] was 8.4 µg/mL (≈ 11.9 µM). For the same compound, the ED50 [16] was 11 mg/kg, the CC50 at 72 h [19] was over 100 µg/mL and the MIC [21, 38] was 0.8 µg/mL (≈ 1.13 µM). It also gave an MIC [21, 39] of 0.8 µg/mL (≈ 1.13 µM).

Compound `COc1cc(O)c2c(c1)C(=O)c1c(cc3c(c1O)-c1c(cc(C)c(C(=O)N[C@H](C)C(=O)O)c1O)C(O[C@@H]1O[C@H](C)[C@H](N)[C@H](O[C@@H]4OC[C@@H](O)[C@H](O)[C@H]4O)[C@H]1O)C3O)C2=O` (stereo partly shown) has an MIC ([2]; IAM2034) of 6.3 µg/mL (≈ 7.62 µM), an MIC [2, 28] of 3.1 µg/mL (≈ 3.75 µM) and an MIC [3, 29] of 6.3 µg/mL (≈ 7.62 µM). It also gave an MIC [3, 30] of 3.1 µg/mL (≈ 3.75 µM), an MIC [5] of 6.3 µg/mL (≈ 7.62 µM) and an MIC [5, 31] of 3.1 µg/mL (≈ 3.75 µM). The MIC [6, 32] was 6.3 µg/mL (≈ 7.62 µM), the MIC [6, 33] was 6.3 µg/mL (≈ 7.62 µM) and the MIC [7] was 3.1 µg/mL (≈ 3.75 µM). It also gave an MIC [9, 34] of 1.6 µg/mL (≈ 1.94 µM), an MIC [10] of 6.3 µg/mL (≈ 7.62 µM) and an MIC [10, 31] of 1.3 µg/mL (≈ 1.57 µM). It also gave an MIC [11, 35] of 6.3 µg/mL (≈ 7.62 µM), an MIC [12, 36] of 6.3 µg/mL (≈ 7.62 µM) and an MIC [12, 37] of 3.1 µg/mL (≈ 3.75 µM). For the same compound, the MIC [21, 38] was 0.8 µg/mL (≈ 0.968 µM) and the MIC [21, 39] was 0.8 µg/mL (≈ 0.968 µM).
